{"source": "patent US11680086B2", "about": "“Lipopeptide for potently inhibiting HIV, derivative thereof, pharmaceutical composition thereof and use thereof” (Institute of Pathogen Biology, Chinese Academy of Medical …, priority 2017, dated 2023)", "key": {"[1]": {"experiment": "circular dichroism secondary structure analysis of the inhibitors themselves", "format": "physicochemical", "conditions": "for secondary structure of the inhibitor itself (in words): 10 μM, 20 μM and 40 μM in PBS", "method": "(§1) The circular dichroism spectrophotometer was Jasco-815 by JASCO Inc., and the assay method was referred to the papers published by the inventors (see the References 18 and 30 listed in the Background Art). […] The N39 and an inhibitor were separately dissolved in a phosphate buffered saline (PBS) to prepare a PBS solution (pH 7.2) of a concentration of 20 μM. The N39 was mixed with an inhibitor at a volume ratio of 1:1 (final concentration of 10 μM for each), the mixed sample was placed at 37° C. for 30 minutes to fully react, and then the helix content and Tm value of the resultant complex were measured by the circular dichroism spectrophotometer. The scan wavelength range of the device was 195-260 nm with a wavelength interval of 1 nm, and the values measured by scanning for three times were averaged. Based on the CD signals, the interaction between the polypeptides and the helix content were determined. Then, the sample for CD signal measurement was transferred to the temperature scanning sample cell, the program of the CD device was set to temperature scanning with a detection wavelength of 220 nm and scanning range of 20-98° C., and the program scan was performed to obtain the curve of the CD signals vs temperature, based on which the Tm value was calculated. Based on the Tm value, the stability of the formed helical structure of the inhibitor and N39 was judged.\nFor easy analysis, the α-helix content and the Tm value of the inhibitors were measured at concentrations of 10 μM, 20 μM, and 40 μM (PBS solution), respectively."}, "[2]": {"system": "HIV-2 strain ROD (infectious)", "experiment": "inhibition of HIV-2", "format": "cell-based", "conditions": "HIV-2 ROD", "method": "Inhibition rate (%) and IC50 value were calculated.\nIn order to further reflect the antiviral advantages of the potent lipopeptides of the present invention, their inhibitory activity against HIV-2 and SIV was determined in the example. The methods of antiviral activity assays used were described in the literatures published by the present inventors (see the References 13 and 30 listed in the Background Art). The molecular cloning plasmid pROD of the HIV-2 strain ROD (HIV-2ROD) was kindly provided by Professor Nuno Taveira from the University of Lisbon, Portugal, and the plasmids expressing the SIV strain SIVpbj (SIVPBJ) and SIV239 envelope proteins (pSIVpbj-Env and pSIV239, respectively) were kindly provided by Professor Xu Jianqing from the Fudan University. The preparation of the infectious ROD was the same as that of the infectious JRCSF in the above section 2.1, and the pseudoviruses SIVpbj and SIV239 were prepared by a method same as that described in the above Examples 2 and 3."}, "[3]": {"target": "N39 (NHR-derived polypeptide of gp41) (Human immunodeficiency virus type 1 group M subtype B, UniProt P04578)", "sequence (P04578 528-566)": "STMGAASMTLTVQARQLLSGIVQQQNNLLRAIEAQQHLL", "format": "binding, HIV-1", "conditions": "10 μM each, PBS pH 7.2", "method": "as §1"}, "HIV-1": {"system": "HIV-1", "conditions": "cell fusion, entry and replication; compared with parent or control peptide", "excerpt": "HIV-1 pseudovirus-mediated cell entry inhibition assay: basic steps included: (1) Preparation of HIV-1 pseudovirus: the 293T cells were co-transfected with a plasmid expressing the envelope protein (Env) of HIV-1 strain NL4-3 (i.e., a recombinant expression plasmid obtained by inserting the gene encoding the envelope protein (ENV) of the D36G mutant of the HIV-1 strain NL4-3 in the Table 2 of the Reference 14 listed in the Background Art into the vector pcDNA3.1(−)) and the HIV-1 backbone plasmid pSG3Δenv (provided by the AIDS Reagent Program of National Institutes of Health (NIH), catalog number: 11051) by using a cell transfection reagent, incubated in a cell incubator of 37° C. and 5% CO2 for 6 hours, and then the medium was changed, and the cells were further incubated for 48 hours. The cell culture supernatant containing pseudovirus particles was pipetted and filtered with a 0.45 μm filter to collect the supernatant, then 20% fetal bovine serum (FBS) was added thereto, the final solution was transferred to a polypropylene tube, and stored at −80° C. for ready for use or directly subjected to virus titration. (2) Titration of HIV-1 pseudovirus: the viruses were diluted by 5 folds in a 96-well plate, and 4 replicate wells with 8 gradients were set to a final volume of 100 microliters. The TZM-b1 cells were trypsinized and counted, and the cells were diluted to 1×10^5 cells/ml with DMEM complete medium; 100 μl of cells dilution (containing 15 μg/ml DEAE-dextran) per well were added and cultured at 37° C. and 5% CO2 for 48 hours. The 96-well plate was then taken from the cell culture incubator. The supernatant was discarded from the wells. To each well, 30 μl of a cell lysate was added, and after 10 minutes, 100 μl of a luciferase detection reagent was added. 100 μl of liquid was pipetted from each well and added to a corresponding 96-well white plate, and the luminescence values were read by a microplate photometer. The virus titer was calculated by the Reed-Muench method. […]"}}, "note": "Peptide text beside a SMILES is read from it. * marks the point of attachment. X1 = Cc1c(C)c2c(c(C)c1OC(=O)CCC(=O)*)CCC(C)(CCCC(C)CCCC(C)CCCC(C)C)O2; Stearoyl = CCCCCCCCCCCCCCCCCC(=O)*; Palmitoyl = CCCCCCCCCCCCCCCC(=O)*"}
{"smiles": "CCCCCCCCCCCCCCCC(=O)NCCCC[C@H](NC(=O)[C@H](CCC(=O)O)NC(=O)[C@H](CC(C)C)NC(=O)[C@H](CCCCN)NC(=O)[C@H](CCCCN)NC(=O)[C@H](CC(C)C)NC(=O)[C@H](CCC(=O)O)NC(=O)[C@H](CCC(=O)O)NC(=O)[C@H](CCC(=O)O)NC(=O)[C@H](CC(N)=O)NC(=O)[C@H](CCCCN)NC(=O)[C@H](CCCCN)NC(=O)[C@H](CCC(N)=O)NC(=O)[C@H](CCC(N)=O)NC(=O)[C@H](CCC(=O)O)NC(=O)[C@H](CCC(=O)O)NC(=O)[C@H](C)NC(=O)[C@H](CCCCN)NC(=O)[C@H](CCCCN)NC(=O)[C@H](CC(C)C)NC(=O)[C@H](CC(C)C)NC(=O)[C@H](CCC(=O)O)NC(=O)[C@H](CCC(=O)O)NC(=O)[C@@H](NC(=O)[C@H](CCCCN)NC(=O)[C@H](CCC(N)=O)NC(=O)[C@H](CCC(=O)O)NC(=O)[C@H](Cc1c[nH]c2ccccc12)NC(C)=O)[C@@H](C)CC)C(N)=O", "note": "[LP-52] (Ac-WEQKIEELLKKAEEQQKKNEEELKKLEK(Palmitoyl)-NH2)", "values": [{"measurement": "secondary structure of the inhibitor itself (in words)", "setting": "[1]", "result": "distinct helical structure"}, {"measurement": "inhibitory activity against HIV-2 (in words)", "setting": "[2]", "result": "extremely potent inhibitory activity"}, {"measurement": "Tm value of the complex with N39", "setting": "[3]", "result": 79.1, "unit": "°C"}, {"measurement": "helix content of the complex with N39", "setting": "[3]", "result": 63.8, "unit": "%"}]}
{"smiles": "CCCCCCCCCCCCCCCCCC(=O)NCCCC[C@H](NC(=O)[C@H](CCC(=O)O)NC(=O)[C@H](CC(C)C)NC(=O)[C@H](CCCCN)NC(=O)[C@H](CCCCN)NC(=O)[C@H](CC(C)C)NC(=O)[C@H](CCC(=O)O)NC(=O)[C@H](CCC(=O)O)NC(=O)[C@H](CCC(=O)O)NC(=O)[C@H](CC(N)=O)NC(=O)[C@H](CCCCN)NC(=O)[C@H](CCCCN)NC(=O)[C@H](CCC(N)=O)NC(=O)[C@H](CCC(N)=O)NC(=O)[C@H](CCC(=O)O)NC(=O)[C@H](CCC(=O)O)NC(=O)[C@H](C)NC(=O)[C@H](CCCCN)NC(=O)[C@H](CCCCN)NC(=O)[C@H](CC(C)C)NC(=O)[C@H](CC(C)C)NC(=O)[C@H](CCC(=O)O)NC(=O)[C@H](CCC(=O)O)NC(=O)[C@@H](NC(=O)[C@H](CCCCN)NC(=O)[C@H](CCC(N)=O)NC(=O)[C@H](CCC(=O)O)NC(=O)[C@H](Cc1c[nH]c2ccccc12)NC(C)=O)[C@@H](C)CC)C(N)=O", "note": "[LP-80] (Ac-WEQKIEELLKKAEEQQKKNEEELKKLEK(Stearoyl)-NH2)", "values": [{"measurement": "secondary structure of the inhibitor itself (in words)", "setting": "[1]", "result": "distinct helical structure"}, {"measurement": "helix content and Tm value of the inhibitor itself (in words)", "setting": "[1]; among the four potent lipopeptides", "result": "the higher helix content and Tm value"}, {"measurement": "inhibitory activity against HIV-2 (in words)", "setting": "[2]", "result": "extremely potent inhibitory activity"}, {"measurement": "Tm value of the complex with N39", "setting": "[3]", "result": 79, "unit": "°C"}]}
{"smiles": "CC[C@H](C)[C@H](NC(=O)[C@H](CCCCN)NC(=O)[C@H](CCC(N)=O)NC(=O)[C@H](CCC(=O)O)NC(=O)[C@H](Cc1c[nH]c2ccccc12)NC(C)=O)C(=O)N[C@@H](CCC(=O)O)C(=O)N[C@@H](CCC(=O)O)C(=O)N[C@@H](CC(C)C)C(=O)N[C@@H](CC(C)C)C(=O)N[C@@H](CCCCN)C(=O)N[C@@H](CCCCN)C(=O)N[C@@H](C)C(=O)N[C@@H](CCC(=O)O)C(=O)N[C@@H](CCC(=O)O)C(=O)N[C@@H](CCC(N)=O)C(=O)N[C@@H](CCC(N)=O)C(=O)N[C@@H](CCCCN)C(=O)N[C@@H](CCCCN)C(=O)N[C@@H](CC(N)=O)C(=O)N[C@@H](CCC(=O)O)C(=O)N[C@@H](CCC(=O)O)C(=O)N[C@@H](CCC(=O)O)C(=O)N[C@@H](CC(C)C)C(=O)N[C@@H](CCCCN)C(=O)N[C@@H](CCCCN)C(=O)N[C@@H](CC(C)C)C(=O)N[C@@H](CCC(=O)O)C(=O)N[C@@H](CCCCNC(=O)CCC(=O)Oc1c(C)c(C)c2c(c1C)CCC(C)(CCCC(C)CCCC(C)CCCC(C)C)O2)C(N)=O", "note": "(stereo partly drawn) [LP-85] (Ac-WEQKIEELLKKAEEQQKKNEEELKKLEK(X1)-NH2)", "values": [{"measurement": "inhibitory activity against HIV-2 (in words)", "setting": "[2]", "result": "extremely potent inhibitory activity"}, {"measurement": "interaction / binding to N39 (in words)", "setting": "[3]", "result": "strong helical binding stability"}, {"measurement": "antiviral activity (in words)", "setting": "HIV-1", "result": "strong antiviral effects"}]}
{"smiles": "CCCCCCCCCCCCCCCCCC(=O)NCCCC[C@H](NC(=O)[C@H](CCC(=O)O)NC(=O)[C@H](CC(C)C)NC(=O)[C@H](CCCCN)NC(=O)[C@H](CCCCN)NC(=O)[C@H](CC(C)C)NC(=O)[C@H](CCC(=O)O)NC(=O)[C@H](CCC(=O)O)NC(=O)[C@H](CCC(=O)O)NC(=O)[C@H](CC(N)=O)NC(=O)[C@H](CCCCN)NC(=O)[C@H](CCCCN)NC(=O)[C@H](CCC(N)=O)NC(=O)[C@H](CCC(N)=O)NC(=O)[C@H](CCC(=O)O)NC(=O)[C@H](CCC(=O)O)NC(=O)[C@H](C)NC(=O)[C@H](CCCCN)NC(=O)[C@H](CCCCN)NC(=O)[C@H](CC(C)C)NC(=O)[C@H](CC(C)C)NC(=O)[C@H](CCC(=O)O)NC(=O)[C@H](CCC(=O)O)NC(=O)[C@@H](NC(C)=O)[C@@H](C)CC)C(N)=O", "note": "[LP-90] (Ac-IEELLKKAEEQQKKNEEELKKLEK(Stearoyl)-NH2)", "values": [{"measurement": "inhibitory activity against HIV-2 (in words)", "setting": "[2]", "result": "extremely potent inhibitory activity"}, {"measurement": "Tm value of the complex with N39", "setting": "[3]", "result": 71.1, "unit": "°C"}, {"measurement": "antiviral activity (in words)", "setting": "HIV-1", "result": "potent antiviral activity"}]}
{"smiles": "CCCCCCCCCCCCCCCC(=O)NCCCC[C@H](NC(=O)[C@H](CCC(=O)O)NC(=O)[C@H](CC(C)C)NC(=O)[C@H](CCCCN)NC(=O)[C@H](CCCCN)NC(=O)[C@H](CC(C)C)NC(=O)[C@H](CCC(=O)O)NC(=O)[C@H](CCC(=O)O)NC(=O)[C@H](CCC(=O)O)NC(=O)[C@H](CC(N)=O)NC(=O)[C@H](CCCCN)NC(=O)[C@H](CCCCN)NC(=O)[C@H](CCC(N)=O)NC(=O)[C@H](CCC(N)=O)NC(=O)[C@H](CCC(=O)O)NC(=O)[C@H](CCC(=O)O)NC(=O)[C@H](C)NC(=O)[C@H](CCCCN)NC(=O)[C@H](CCCCN)NC(=O)[C@H](CC(C)C)NC(=O)[C@H](CC(C)C)NC(=O)[C@H](CCC(=O)O)NC(=O)[C@H](CCC(=O)O)NC(=O)[C@@H](NC(=O)[C@H](CC(N)=O)NC(=O)[C@H](C)NC(=O)[C@H](CCC(=O)O)NC(=O)[C@H](CC(C)C)NC(C)=O)[C@@H](C)CC)C(N)=O", "note": "[LP-51] (Ac-LEANIEELLKKAEEQQKKNEEELKKLEK(Palmitoyl)-NH2)", "values": [{"measurement": "secondary structure of the inhibitor itself (in words)", "setting": "[1]", "result": "distinct helical structure"}, {"measurement": "inhibitory activity against HIV-2 (in words)", "setting": "[2]", "result": "extremely potent inhibitory activity"}, {"measurement": "Tm value of the complex with N39", "setting": "[3]", "result": 72, "unit": "°C"}, {"measurement": "antiviral activity (in words)", "setting": "HIV-1", "result": "comparable to that of the LP-50"}]}
